Entries after “also recorded” stand apart in the source; their conditions may differ.
How the values were obtained:
[1] = tested on: brain monoamine levels, amphetamine-treated mice; assay: Brain monoamines and metabolites, amphetamine-treated mice (UHPLC-TOF-MS); type: in vivo, male albino ICR mice; details: amphetamine 3 mg/kg i.p.
[2] = tested on: amphetamine-induced hyperlocomotion in ICR mice; assay: Open field locomotor activity, amphetamine-induced hyperlocomotion; type: in vivo, male albino ICR mice; details: amphetamine 3 mg/kg i.p.; p = 0.0008 vs control; n = 7–8
[3] = tested on: DOI-induced hyperlocomotion in ICR mice; assay: Open field locomotor activity, DOI-induced hyperlocomotion; type: in vivo, male albino ICR mice; details: DOI 3 mg/kg i.p.; p = 0.0033 vs control; n = 7–8
hyper-locomotion = details: published data; cited from earlier work
Description: The selected DOI dose in our behavioural studies was 3 mg/kg, which according to published data, corresponds to the dose range (0.625-5.0 mg/kg) that induces hyper-locomotion. […] These altered parameters ...

5-HT2C receptor = details: cited from earlier work
Description: (§1) The aims of the present studies were: to test whether lunasin would show an influence on the dopaminergic system after intranasal administration, and to examine the effect(s) of lunasin on serotonin and glutamatergic systems, which could play an essential role in antipsychoti ... || The binding assay was performed by Eurofins Cerep (France) according to Bryant et al., 1996 [15]. Briefly, the binding of lunasin to 5-HT2A and 5-HT2C receptors was estimated on its ability to displace the specific binding of [^125I]DOI on cell membrane suspensions of HEK-293 cells expressing human recombinant 5-HT2A and 5-HT2C receptors. The radioligand [^125I]DOI has high affinity for 5-HT2A (Kd: 0.3 nM) and 5-HT2C (Kd: 0.9 nM) receptors. Lunasin was tested at concentrations of 1, 10 and 100 µM. The results were expressed as a percent of radioligand specific binding (n = 2).

5-HT2A receptor = details: cited from earlier work
Description: as §1

[4] = tested on: brain monoamine levels, DOI-treated mice; assay: Brain monoamines and metabolites, DOI-treated mice (UHPLC-TOF-MS); type: in vivo, male albino ICR mice; details: DOI 3 mg/kg i.p.
[5] = tested on: PCP-induced hyperlocomotion in ICR mice; assay: Open field locomotor activity, phencyclidine-induced hyperlocomotion; type: in vivo, male albino ICR mice; details: PCP 5 mg/kg i.p.; p < 0.0001 vs control; n = 7–8
[6] = comparison for lunasin, abstract, source not printed there
[7] = radioligand affinity quoted in method, Eurofins Cerep, ref Bryant et al., 1996 [15]

C[C@H](N)Cc1ccccc1 [Amphetamine, d-amphetamine, reference compound]
brain DOPAC concentration [1]: Neither lunasin per se nor amphetamine changed the DOPAC concentration | brain 5-HIAA level ([1]; p < 0.0001): increased brain serotonin and its metabolite 5-HIAA levels | brain dopamine level ([1]; p < 0.0001): markedly increased the dopamine level | brain noradrenaline level ([1]; p < 0.0001): augmented by amphetamine | brain serotonin level ([1]; p < 0.0001): increased brain serotonin and its metabolite 5-HIAA levels | brain HVA level ([1]; p = 0.0079): increased by amphetamine | increase in total walked distance versus control [2]: approximately 2 -fold

COc1cc(CC(C)N)c(OC)cc1I (centres unmarked) [DOI, 1-(2,5-dimethoxy-4-iodophenyl)-2-aminopropane, reference compound]
effect on locomotion versus control [3]: induced hyperactivity | dose range that induces hyper-locomotion (hyper-locomotion): 0.625 to 5.0 mg/kg | receptor affinity, concentration range (5-HT2C receptor; [6]): nM concentrations | receptor affinity, concentration range (5-HT2A receptor; [6]): nM concentrations | brain 5-HIAA level [4]: up-regulated levels of serotonin and 5-HIAA; also recorded: considerable elevation of brain levels of serotonin and its metabolite 5-HIAA | brain dopamine concentration [4]: did not change dopamine brain concentrations; also recorded: did not change the dopamine concentration | brain serotonin level [4]: up-regulated levels of serotonin and 5-HIAA; also recorded: considerable elevation of brain levels of serotonin and its metabolite 5-HIAA | brain DOPAC concentration ([4]; p < 0.001): elevated; also recorded: increasing DOPAC levels | brain noradrenaline level ([4]; p < 0.05): decreased by DOI treatment; also recorded: lowered those of HVA and noradrenaline | brain HVA level ([4]; p = 0.0022): decreased by DOI treatment; also recorded: lowered those of HVA and noradrenaline

Cl.c1ccc(C2(N3CCCCC3)CCCCC2)cc1 [PCP, 1-(1-phenylcyclohexyl)piperidine hydrochloride, reference compound]
effect on locomotion versus control [5]: induced hyperlocomotion

COc1cc(CC(C)N)c(OC)cc1I (centres unmarked) [[125I]DOI]
Kd (5-HT2C receptor; [7]): 0.9 nM | Kd (5-HT2A receptor; [7]): 0.3 nM

Reference: paper PMC6681393, “Intra-Nasally Administered Oligopeptide Lunasin Acts as a Possible Anti-Psychotic Agent in Mice Models” (Medicina, 2019)
